# Experimental data as given in PubChem BioAssay AID1963873 (Molecular Pharmacology Branch, DTP, NCI, 2024).
# System: 276233-004-R-J1-PDC KRAS spheroids with HUVEC/MSC, viability
# Experiment: Anticancer human tumor 276233-004-R-J1-PDC patient-derived colon adenocarcinoma cell line growth inhibition [KRAS2]
# Conditions: for viability, T/C: stronger effect = lower value
# In short: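 KRAS-mutant tumor cells were grown as spheroids with HUVEC endothelial cells and human MSCs as stroma. Targeted agents were tested alone and with KRAS pathway inhibitors. Doses started at or near clinical Cmax, or 10 microM, descending half-log.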
# [1] = curve of first compound, second compound 0.1 µM
# [2] = curve of first compound, second compound 0.316 µM
# [3] = curve of first compound, second compound 1 µM
# [4] = curve of first compound, second compound 3.16 µM
# [5] = curve of first compound, second compound 10 µM
# [6] = second compound 0.1 µM, first compound 0.0316 µM
# [7] = second compound 0.1 µM, first compound 0.1 µM
# [8] = second compound 0.1 µM, first compound 0.316 µM
# [9] = second compound 0.1 µM, first compound 1 µM
# [10] = second compound 0.1 µM, first compound 3.16 µM
# [11] = second compound 0.1 µM, first compound 10 µM
# [12] = second compound 0.316 µM, first compound 0.0316 µM
# [13] = second compound 0.316 µM, first compound 0.1 µM
# [14] = second compound 0.316 µM, first compound 0.316 µM
# [15] = second compound 0.316 µM, first compound 1 µM
# [16] = second compound 0.316 µM, first compound 3.16 µM
# [17] = second compound 0.316 µM, first compound 10 µM
# [18] = second compound 1 µM, first compound 0.0316 µM
# [19] = second compound 1 µM, first compound 0.1 µM
# [20] = second compound 1 µM, first compound 0.316 µM
# [21] = second compound 1 µM, first compound 1 µM
# [22] = second compound 1 µM, first compound 3.16 µM
# [23] = second compound 1 µM, first compound 10 µM
# [24] = second compound 3.16 µM, first compound 0.0316 µM
# [25] = second compound 3.16 µM, first compound 0.1 µM
# [26] = second compound 3.16 µM, first compound 0.316 µM
# [27] = second compound 3.16 µM, first compound 1 µM
# [28] = second compound 3.16 µM, first compound 3.16 µM
# [29] = second compound 3.16 µM, first compound 10 µM
# [30] = second compound 10 µM, first compound 0.0316 µM
# [31] = second compound 10 µM, first compound 0.1 µM
# [32] = second compound 10 µM, first compound 0.316 µM
# [33] = second compound 10 µM, first compound 1 µM
# [34] = second compound 10 µM, first compound 3.16 µM
# [35] = curve of first compound, second compound 0.0316 µM
# [36] = second compound 0.0316 µM, first compound 0.0316 µM
# [37] = second compound 0.0316 µM, first compound 0.1 µM
# [38] = second compound 0.1 µM, first compound 0.01 µM
# [39] = second compound 0.316 µM, first compound 0.01 µM
# [40] = second compound 1 µM, first compound 0.01 µM
# [41] = second compound 3.16 µM, first compound 0.01 µM
# 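Note: cells exposed to agents for seven days before viability read.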
# 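Throughout, for viability, T/C: 100% = DMSO vehicle control wells and lower values mean fewer viable cells.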
compound,measurement,setting,value
COC(=O)c1ccc2c(C(=Nc3ccc(N(C)C(=O)CN4CCN(C)CC4)cc3)c3ccccc3)c(O)[nH]c2c1 + CC1OCC2(CCN(c3cnc(Sc4ccnc(N)c4Cl)c(N)n3)CC2)C1N,IC50,[1],> 10 µM
same,IC50,[2],> 10 µM
same,IC50,[3],1.18 µM
same,IC50,[4],0.0332 µM
same,IC50,[5],< 0.0316 µM
same,"viability, T/C",[6],87.3%
same,"viability, T/C",[7],73.7%
same,"viability, T/C",[8],68.5%
same,"viability, T/C",[9],64.6%
same,"viability, T/C",[10],65.6%
same,"viability, T/C",[11],56.2%
same,"viability, T/C",[12],80%
same,"viability, T/C",[13],63.8%
same,"viability, T/C",[14],59.2%
same,"viability, T/C",[15],64.7%
same,"viability, T/C",[16],46.1%
same,"viability, T/C",[17],70.7%
same,"viability, T/C",[18],67.8%
same,"viability, T/C",[19],61.1%
same,"viability, T/C",[20],54.3%
same,"viability, T/C",[21],55.1%
same,"viability, T/C",[22],42.3%
same,"viability, T/C",[23],42.1%
same,"viability, T/C",[24],49.8%
same,"viability, T/C",[25],47.6%
same,"viability, T/C",[26],40.6%
same,"viability, T/C",[27],41.1%
same,"viability, T/C",[28],40%
same,"viability, T/C",[29],37.3%
same,"viability, T/C",[30],44.9%
same,"viability, T/C",[31],49.5%
same,"viability, T/C",[32],42.6%
same,"viability, T/C",[33],48%
same,"viability, T/C",[34],36.3%
same,"viability, T/C","second compound 10 µM, first compound 10 µM",37.9%
CN(C)C/C=C/C(=O)Nc1cc2c(Nc3ccc(F)c(Cl)c3)ncnc2cc1O[C@H]1CCOC1 + C=CC(=O)N1CCN(c2nc(OCC3CCCN3C)nc3c2CCN(c2cccc4cccc(C)c24)C3)CC1CC#N,IC50,[35],> 0.1 µM
same,IC50,[1],> 0.1 µM
same,IC50,[2],> 0.1 µM
same,IC50,[3],> 0.1 µM
same,IC50,[4],0.000902 µM
same,"viability, T/C","second compound 0.0316 µM, first compound 0.000316 µM",112%
same,"viability, T/C","second compound 0.0316 µM, first compound 0.001 µM",114%
same,"viability, T/C","second compound 0.0316 µM, first compound 0.00316 µM",91.3%
same,"viability, T/C","second compound 0.0316 µM, first compound 0.01 µM",102%
same,"viability, T/C",[36],97.4%
same,"viability, T/C",[37],86.3%
same,"viability, T/C","second compound 0.1 µM, first compound 0.000316 µM",116%
same,"viability, T/C","second compound 0.1 µM, first compound 0.001 µM",93.8%
same,"viability, T/C","second compound 0.1 µM, first compound 0.00316 µM",91.3%
same,"viability, T/C",[38],85%
same,"viability, T/C",[6],88%
same,"viability, T/C",[7],85.7%
same,"viability, T/C","second compound 0.316 µM, first compound 0.000316 µM",87%
same,"viability, T/C","second compound 0.316 µM, first compound 0.001 µM",110%
same,"viability, T/C","second compound 0.316 µM, first compound 0.00316 µM",91.9%
same,"viability, T/C",[39],78.3%
same,"viability, T/C",[12],81.5%
same,"viability, T/C",[13],72.2%
same,"viability, T/C","second compound 1 µM, first compound 0.000316 µM",84.8%
same,"viability, T/C","second compound 1 µM, first compound 0.001 µM",78.8%
same,"viability, T/C","second compound 1 µM, first compound 0.00316 µM",70.5%
same,"viability, T/C",[40],83.6%
same,"viability, T/C",[18],84.2%
same,"viability, T/C",[19],78.7%
same,"viability, T/C","second compound 3.16 µM, first compound 0.000316 µM",67.5%
same,"viability, T/C","second compound 3.16 µM, first compound 0.001 µM",52.7%
same,"viability, T/C","second compound 3.16 µM, first compound 0.00316 µM",37.8%
same,"viability, T/C",[41],27.6%
same,"viability, T/C",[24],53.2%
same,"viability, T/C",[25],47.7%
CC1COCCN1c1cc(-c2ccnn2C)c2ccnc(-c3ccn[nH]3)c2n1 (stereo not given) + C=CC(=O)N1CCN(c2nc(=O)n(-c3c(C)ccnc3C(C)C)c3nc(-c4c(O)cccc4F)c(F)cc23)C(C)C1,IC50,[1],> 3.16 µM
same,IC50,[2],> 3.16 µM
same,IC50,[3],> 3.16 µM
same,IC50,[4],> 3.16 µM
same,IC50,[5],1 µM
same,"viability, T/C",[38],112%
same,"viability, T/C",[6],104%
same,"viability, T/C",[7],88.4%
same,"viability, T/C",[8],109%
same,"viability, T/C",[9],63.1%
same,"viability, T/C",[10],54.8%
same,"viability, T/C",[39],96.3%
same,"viability, T/C",[12],96.2%
same,"viability, T/C",[13],97.1%
same,"viability, T/C",[14],77.6%
same,"viability, T/C",[15],74.5%
same,"viability, T/C",[16],55.1%
same,"viability, T/C",[40],96%
same,"viability, T/C",[18],105%
same,"viability, T/C",[19],84.6%
same,"viability, T/C",[20],76.6%
same,"viability, T/C",[21],72.4%
same,"viability, T/C",[22],61.7%
same,"viability, T/C",[41],114%
same,"viability, T/C",[24],110%
same,"viability, T/C",[25],78.9%
same,"viability, T/C",[26],79.5%
same,"viability, T/C",[27],61.7%
same,"viability, T/C",[28],71%
same,"viability, T/C","second compound 10 µM, first compound 0.01 µM",66%
same,"viability, T/C",[30],62.9%
same,"viability, T/C",[31],74.2%
same,"viability, T/C",[32],43.8%
same,"viability, T/C",[33],51.2%
same,"viability, T/C",[34],58.7%
CC(C)NCC(C(=O)N1CCN(c2ncnc3c2C(C)CC3O)CC1)c1ccc(Cl)cc1 (stereo not given) + C=CC(=O)N1CCN(c2nc(OCC3CCCN3C)nc3c2CCN(c2cccc4cccc(C)c24)C3)CC1CC#N,IC50,[35],> 10 µM
same,IC50,[1],> 10 µM
same,IC50,[2],> 10 µM
same,IC50,[3],> 10 µM
same,IC50,[4],< 0.0316 µM
same,"viability, T/C",[36],97.3%
same,"viability, T/C",[37],93.5%
same,"viability, T/C","second compound 0.0316 µM, first compound 0.316 µM",84.8%
same,"viability, T/C","second compound 0.0316 µM, first compound 1 µM",63.7%
same,"viability, T/C","second compound 0.0316 µM, first compound 3.16 µM",66.3%
same,"viability, T/C","second compound 0.0316 µM, first compound 10 µM",64.9%
same,"viability, T/C",[6],80.6%
same,"viability, T/C",[7],81.7%
same,"viability, T/C",[8],67.6%
same,"viability, T/C",[9],64.6%
same,"viability, T/C",[10],85.4%
same,"viability, T/C",[11],76.9%
same,"viability, T/C",[12],66.8%
same,"viability, T/C",[13],81.4%
same,"viability, T/C",[14],72.8%
same,"viability, T/C",[15],65.5%
same,"viability, T/C",[16],63.2%
same,"viability, T/C",[17],58.7%
same,"viability, T/C",[18],60.4%
same,"viability, T/C",[19],65.6%
same,"viability, T/C",[20],65%
same,"viability, T/C",[21],61.9%
same,"viability, T/C",[22],64.8%
same,"viability, T/C",[23],58.4%
same,"viability, T/C",[24],37.6%
same,"viability, T/C",[25],46.9%
same,"viability, T/C",[26],44%
same,"viability, T/C",[27],22%
same,"viability, T/C",[28],32%
same,"viability, T/C",[29],27.3%
COc1cc(Nc2ncc3c(n2)-c2ccc(Cl)cc2C(c2c(F)cccc2OC)=NC3)ccc1C(=O)O,"viability, T/C",compound 0.1 µM,99.8% [middle of 5 runs]
same,"viability, T/C",compound 0.316 µM,93.1% [middle of 5 runs]
same,"viability, T/C",compound 1 µM,87.7% [middle of 5 runs]
same,"viability, T/C",compound 3.16 µM,95.5% [middle of 5 runs]
same,IC50,curve of compound,> 10 µM
